From ChEMBL document CHEMBL1134008, “Cis- and trans-N-benzyl-octahydrobenzo[g]quinolines. Adrenergic and dopaminergic activity studies” (Bioorg Med Chem Lett, 2001)

What was measured:
Assay type in all cases: cell membranes, Membrane; call rule not given here
D(1A) dopamine receptor [1] = target: T1, D(1A) dopamine receptor (Rattus norvegicus, UniProt P18901); assay: Inhibition of binding of [3H]SCH-23390 to Dopamine receptor D1 in rat striatal membranes at 5 uM concentration; NA is not active
[2] = target: T2, Adrenergic receptor alpha-1 (Rattus norvegicus, UniProt P15823+P23944+P43140); assay: Inhibition of binding of [3H]prazosin to Alpha-1 adrenergic receptor in rat cortical membranes
T2 sequence (P15823 whole entry): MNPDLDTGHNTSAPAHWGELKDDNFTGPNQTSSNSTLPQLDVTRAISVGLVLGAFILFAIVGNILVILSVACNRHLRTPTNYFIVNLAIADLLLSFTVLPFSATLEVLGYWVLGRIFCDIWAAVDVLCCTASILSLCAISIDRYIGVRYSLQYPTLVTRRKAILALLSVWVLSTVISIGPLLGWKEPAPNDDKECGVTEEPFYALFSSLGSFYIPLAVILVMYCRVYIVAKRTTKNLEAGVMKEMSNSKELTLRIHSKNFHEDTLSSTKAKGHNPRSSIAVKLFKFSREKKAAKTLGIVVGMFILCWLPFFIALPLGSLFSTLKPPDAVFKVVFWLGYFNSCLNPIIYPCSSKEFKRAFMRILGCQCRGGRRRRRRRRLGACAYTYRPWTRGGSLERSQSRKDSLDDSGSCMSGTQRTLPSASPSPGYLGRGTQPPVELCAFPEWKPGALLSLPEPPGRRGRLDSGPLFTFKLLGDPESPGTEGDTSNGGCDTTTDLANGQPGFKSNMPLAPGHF
T2 sequence (P23944 whole entry): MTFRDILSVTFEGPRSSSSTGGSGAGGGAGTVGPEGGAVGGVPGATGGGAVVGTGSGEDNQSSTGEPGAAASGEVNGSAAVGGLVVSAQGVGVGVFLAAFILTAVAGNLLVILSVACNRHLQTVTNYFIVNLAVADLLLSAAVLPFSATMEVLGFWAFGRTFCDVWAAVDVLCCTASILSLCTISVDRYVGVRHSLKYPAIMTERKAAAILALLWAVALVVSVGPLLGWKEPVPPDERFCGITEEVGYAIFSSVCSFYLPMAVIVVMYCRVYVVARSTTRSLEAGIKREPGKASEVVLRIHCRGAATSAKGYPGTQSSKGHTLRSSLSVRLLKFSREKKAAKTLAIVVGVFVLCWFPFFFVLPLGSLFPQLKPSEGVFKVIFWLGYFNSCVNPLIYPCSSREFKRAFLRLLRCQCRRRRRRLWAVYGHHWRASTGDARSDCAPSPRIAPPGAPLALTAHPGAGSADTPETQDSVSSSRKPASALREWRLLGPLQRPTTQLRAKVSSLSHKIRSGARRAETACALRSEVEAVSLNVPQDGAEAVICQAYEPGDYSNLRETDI
T2 sequence (P43140 whole entry): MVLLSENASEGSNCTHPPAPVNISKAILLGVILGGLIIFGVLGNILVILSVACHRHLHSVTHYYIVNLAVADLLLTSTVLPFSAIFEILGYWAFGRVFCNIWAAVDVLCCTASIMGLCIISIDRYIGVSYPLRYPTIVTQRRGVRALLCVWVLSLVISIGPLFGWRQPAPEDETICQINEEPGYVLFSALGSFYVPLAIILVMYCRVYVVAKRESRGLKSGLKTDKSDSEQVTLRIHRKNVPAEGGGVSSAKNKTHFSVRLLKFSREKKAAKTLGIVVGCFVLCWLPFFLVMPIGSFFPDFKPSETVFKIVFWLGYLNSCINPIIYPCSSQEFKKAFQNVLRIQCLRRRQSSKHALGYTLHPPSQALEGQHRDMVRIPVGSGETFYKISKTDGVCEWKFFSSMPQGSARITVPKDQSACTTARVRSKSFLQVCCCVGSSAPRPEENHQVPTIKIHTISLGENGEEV

[3] = target: T3, Adrenergic receptor alpha-2 (Rattus norvegicus, UniProt P22086+P19328+P22909); assay: Inhibition of binding of [3H]rauwolscine to Alpha-2 adrenergic receptor in rat cortical membranes
T3 sequence (P22086 whole entry): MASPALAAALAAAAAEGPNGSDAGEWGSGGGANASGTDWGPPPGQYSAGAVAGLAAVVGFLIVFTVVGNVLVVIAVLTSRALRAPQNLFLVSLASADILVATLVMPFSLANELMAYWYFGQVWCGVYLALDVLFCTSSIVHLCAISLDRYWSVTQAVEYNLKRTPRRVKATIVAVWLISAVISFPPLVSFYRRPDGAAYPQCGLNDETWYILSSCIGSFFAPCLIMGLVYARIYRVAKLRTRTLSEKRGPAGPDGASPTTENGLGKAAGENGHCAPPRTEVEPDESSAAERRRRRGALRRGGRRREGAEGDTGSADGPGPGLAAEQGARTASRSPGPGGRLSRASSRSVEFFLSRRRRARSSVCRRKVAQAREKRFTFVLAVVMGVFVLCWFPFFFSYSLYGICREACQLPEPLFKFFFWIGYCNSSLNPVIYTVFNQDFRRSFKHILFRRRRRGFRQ
T3 sequence (P19328 whole entry): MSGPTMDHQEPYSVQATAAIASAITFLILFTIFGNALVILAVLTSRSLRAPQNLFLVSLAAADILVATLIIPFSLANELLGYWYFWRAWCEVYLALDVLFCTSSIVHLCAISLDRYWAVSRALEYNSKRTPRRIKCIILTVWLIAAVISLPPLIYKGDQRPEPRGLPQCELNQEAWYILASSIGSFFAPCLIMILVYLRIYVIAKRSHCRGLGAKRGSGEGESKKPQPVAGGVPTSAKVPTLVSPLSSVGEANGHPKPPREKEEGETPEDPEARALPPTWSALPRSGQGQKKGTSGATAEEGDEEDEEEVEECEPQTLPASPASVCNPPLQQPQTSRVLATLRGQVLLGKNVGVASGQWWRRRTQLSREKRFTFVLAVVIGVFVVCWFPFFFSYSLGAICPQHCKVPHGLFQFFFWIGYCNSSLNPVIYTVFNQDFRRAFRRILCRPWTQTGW
T3 sequence (P22909 whole entry): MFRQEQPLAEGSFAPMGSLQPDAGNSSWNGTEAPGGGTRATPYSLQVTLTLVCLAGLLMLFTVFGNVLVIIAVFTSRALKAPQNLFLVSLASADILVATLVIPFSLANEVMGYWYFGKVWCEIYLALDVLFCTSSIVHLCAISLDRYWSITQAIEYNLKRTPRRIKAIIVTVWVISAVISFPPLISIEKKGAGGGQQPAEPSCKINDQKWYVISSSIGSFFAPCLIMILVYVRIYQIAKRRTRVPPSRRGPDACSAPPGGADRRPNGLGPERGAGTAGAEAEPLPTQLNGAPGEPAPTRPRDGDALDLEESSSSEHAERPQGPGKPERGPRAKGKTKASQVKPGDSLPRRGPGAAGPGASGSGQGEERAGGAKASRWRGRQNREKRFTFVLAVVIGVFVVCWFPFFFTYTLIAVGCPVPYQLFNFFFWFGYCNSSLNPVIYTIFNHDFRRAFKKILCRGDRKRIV

D(2) dopamine receptor [4] = target: T4, D(2) dopamine receptor (Rattus norvegicus, UniProt P61169); assay: Inhibition of binding of [3H]spiroperidol to Dopamine receptor D2 in rat striatal membranes at 5 uM concentration; NA is not active
D(1A) dopamine receptor [5] = target: T1, D(1A) dopamine receptor; assay: Inhibition of binding of [3H]SCH-23390 to Dopamine receptor D1 in rat striatal membranes
D(2) dopamine receptor [6] = target: T4, D(2) dopamine receptor; assay: Inhibition of binding of [3H]spiroperidol to Dopamine receptor D2 in rat striatal membranes

T1 sequence (P18901 whole entry): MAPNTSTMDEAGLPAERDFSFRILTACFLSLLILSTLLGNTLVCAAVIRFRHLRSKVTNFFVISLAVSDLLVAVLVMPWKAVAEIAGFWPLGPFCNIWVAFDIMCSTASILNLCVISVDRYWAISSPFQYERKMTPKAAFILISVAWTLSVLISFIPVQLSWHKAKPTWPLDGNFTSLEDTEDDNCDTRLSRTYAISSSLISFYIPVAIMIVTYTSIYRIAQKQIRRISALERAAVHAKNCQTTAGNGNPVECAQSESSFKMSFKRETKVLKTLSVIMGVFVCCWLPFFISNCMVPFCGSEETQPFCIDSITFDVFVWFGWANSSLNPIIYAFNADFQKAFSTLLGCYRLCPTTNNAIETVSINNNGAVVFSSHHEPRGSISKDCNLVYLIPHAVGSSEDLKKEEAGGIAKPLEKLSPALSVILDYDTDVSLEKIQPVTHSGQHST
T4 sequence (P61169 whole entry): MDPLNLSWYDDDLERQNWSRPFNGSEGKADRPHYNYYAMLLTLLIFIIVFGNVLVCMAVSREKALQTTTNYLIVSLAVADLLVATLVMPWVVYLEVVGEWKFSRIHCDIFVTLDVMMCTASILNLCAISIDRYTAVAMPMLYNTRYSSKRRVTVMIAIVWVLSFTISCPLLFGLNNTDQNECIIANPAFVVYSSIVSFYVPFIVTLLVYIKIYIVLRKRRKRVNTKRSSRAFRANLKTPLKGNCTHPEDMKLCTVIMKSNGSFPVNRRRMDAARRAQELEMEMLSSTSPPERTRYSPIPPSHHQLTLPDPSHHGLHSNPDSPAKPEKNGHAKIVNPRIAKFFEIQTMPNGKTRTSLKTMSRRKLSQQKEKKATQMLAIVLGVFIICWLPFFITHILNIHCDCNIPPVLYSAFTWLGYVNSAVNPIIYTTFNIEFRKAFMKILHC

Compound | IC50 (D(1A) dopamine receptor [1]) | IC50 [2] [µM] | IC50 [3] [µM] | IC50 (D(2) dopamine receptor [4]) | IC50 (D(1A) dopamine receptor [5]) [µM] | IC50 (D(2) dopamine receptor [6]) [µM]
COc1cccc2c1CC1CCCN(Cc3ccccc3)C1C2 (stereo in doubt; cis) | Not Active | 667 | 38 | Not Active |  | 
COc1cccc2c1CC1CCCNC1C2 (trans isomer) | Not Active |  | 67.5 | Not Active |  | 
COc1cccc2c1CC1CCCN(Cc3ccccc3)C1C2 (stereo in doubt; trans) |  | 588 | 6 |  | 0.45 | 
c1ccc(CN2CCCC3Cc4ccccc4CC32)cc1 (stereo in doubt; cis) | Not Active | 739 | 214 |  |  | 
NC1CCc2c(ccc(O)c2O)C1 (racemic) |  |  |  |  |  | 0.7
c1ccc(CN2CCCC3Cc4ccccc4CC32)cc1 (stereo in doubt; trans) |  | 218 | 5.9 | Not Active | 1.2 | 
c1ccc2c(c1)CC1CCCNC1C2 (stereo unspecified) | Not Active |  | 130 | Not Active |  | 
